Test system: BaF3 BRAF-KIAA1549 fusion cells
Test: BaF3 BRAF-KIAA1549 fusion cell proliferation assay
Assay type: cell-based
Details: Mus musculus, BaF3, 96 h, read-out: IC50, inhibition of cell growth, BaF3-BRAF:KIAA1549 Fusion
Protocol: Retroviral Production: The BRAF-KIAA1549 fusion mutant was subcloned into pMXs-IRES-Blasticidin (RTV-016, Cell Biolabs, San Diego, CA). […]. Briefly, HEK 293T cells were plated in Poly-D-lysine coated 6-well plate (2.5×10^5 cells per well) and incubated overnight. The next day, retroviral plasmids (1 μg of BRAF-KIAA fusion mutant, 0.32 μg of pCMV-Gag-Pol and 0.165 μg pCMV-VSV-G) were mixed in 300 μL of Optimem (31985, Life Technologies). The mixture was incubated at room temperature for 5 minutes and then added to Optimem containing transfection reagent Lipofectamine (11668, Invitrogen) and incubated for 20 minutes. The mixture was then added dropwise to HEK 293T cells. The next day the medium was replaced with fresh culture medium and retrovirus was harvested at 24 hours.
Generation of BRAF-KIAA1549 fusion stable cell line: BaF3 cells were plated in V-bottom 96 well plate (COSTAR #3894) in 80 μL of RPMI/10% FBS and 0.01 ng/mL mouse IL-3, supplemented with 8 μg/mL polybrene (4×10^4 cells/well). Cells were transduced with 20 μL of BRAF-KIAA1549 fusion viral supernatant by centrifuging for 30 minutes at 1000 rpm. Cells were placed in a 37 °C incubator overnight. Next day 100 μL of RPMI/10% FBS and 0.01 ng/mL mouse IL-3 was added. After 24 hours, 100 μL of cells were transferred to a 24 well plate containing 900 μL of RPMI/10% FBS and 15 μg/mL Blasticidin. Contents of the 24 well plate were sampled for cell viability via CellTiterGlo (Promega) over a 2-week period.
Assay for cell proliferation: BaF3 BRAF-KIAA1549 fusion cells were resuspended at 1.5×10^5 c/mL in RPMI containing 10% Heat Inactivated FBS, 1% L-glutamine and dispensed in duplicate ([…]) into 384 well plates. To determine the effect of compound on cell proliferation, BaF3 BRAF-KIAA1549 fusion cells were incubated for 96 hours in the presence of vehicle control (DMSO) or compound at varying concentrations. Inhibition of cell growth was determined by luminescent quantification (Envision by Perkin Elmer) of intracellular ATP content using CellTiterGlo (Promega), according to the protocol provided by the manufacturer. To determine the IC50 values, the vehicle-treated cells were normalized as viable cells and analyzed using the CDD Vault, Collaborative Drug Discovery, Burlingame, CA (the Levenberg-Marquardt algorithm; Levenberg, K, […]; Marquardt, D., 1963).
Table A assigns each compound a code for potency in the BaF3 BRAF-KIAA1549 fusion cell proliferation assay: A, B, C, or D. According to the code, A represents an IC50 value<20 nM; B represents an IC50 value≥20 nM and <100 nM; C represents an IC50 value≥100 nM and <500 nM; and D represents an IC50 value≥500 nM.

`CNc1cc2ncc(-c3cc(NC(=O)c4cc(C5(C#N)CCC5)ccn4)cnc3C)cc2cn1` [compound 31] and `CNc1cc2ncc(-c3cc(NC(=O)c4cc(C5(C#N)CCC5)ccn4)ccc3C)cc2cn1` [compound 15] fall in the same range of IC50: 20 to 100 nM for the first, 20 to 100 nM for the second.

First: CNc1cc2ncc(-c3cc(NC(=O)c4cc(C(F)(F)F)c(OCCO)cn4)ccc3C)cc2cn1 [compound 71]
Second: CNc1cc2ncc(-c3cc(NC(=O)c4cc(C(F)(F)F)ccn4)ccc3C)cc2cn1 [compound 1]
The IC50 of the first is higher: 20 to 100 nM for the first, < 20 nM for the second.

First: CNc1cc2ncc(-c3cc(NC(=O)c4n[nH]c5c4CN(C)CC5)cnc3C)cc2cn1 [compound 244]
Second: CNc1cc2ncc(-c3cc(NC(=O)c4n[nH]c5c4CCCC5)cnc3C)cc2cn1 [compound 229]
The IC50 of the first is higher: > 500 nM for the first, 20 to 100 nM for the second. The second is the more potent here.

`CNc1cc2ncc(-c3cc(NC(=O)c4ccnc(C(C)(C)C#N)c4)cnc3C)cc2cn1` [compound 55] and `CNc1cc2ncc(-c3cc(NC(=O)c4ccnc(C(C)(F)F)c4)cnc3C)cc2cn1` [compound 29] cannot be ordered by IC50: < 20 nM for the first, < 20 nM for the second.

First: CNc1cc2ncc(-c3cc(NC(=O)c4cnc5n4CCCC5)ccc3C)cc2cn1 [compound 216]
Second: CNc1cc2ncc(-c3cc(NC(=O)c4cnc5n4CCCC5)cnc3C)cc2cn1 [compound 209]
The IC50 of the first is lower: 100 to 500 nM for the first, > 500 nM for the second.

First: CNc1cc2ncc(-c3cc(C(=O)Nc4cccc(C(C)(C)C#N)c4)cnn3)cc2cn1 [compound 196]
Second: CNc1cc2ncc(-c3cc(NC(=O)c4cc(C(C)(C)C#N)ccn4)cnn3)cc2cn1 [compound 49]
The IC50 of the first is higher: > 500 nM for the first, < 20 nM for the second. The second is the more potent here.

Compared with `CNc1cc2ncc(-c3cc(NC(=O)c4cc(C(F)(F)F)ccn4)nnc3C)cc2cn1` [compound 75], `CNc1cc2ncc(-c3cc(NC(=O)c4cc(C(F)(F)F)ccn4)cnc3C)cc2cn1` [compound 20] is lower in IC50: 20 to 100 nM for the first, < 20 nM for the second. The second is the more potent here.

`CNc1cc2ncc(-c3cc(NC(=O)c4cc(C(F)(F)F)c(C)cn4)cnc3C)cc2cn1` [compound 25] and `CNc1cc2ncc(-c3cc(NC(=O)c4nccc(C(F)(F)F)c4Cl)cnc3C)cc2cn1` [compound 26] fall in the same range of IC50: 20 to 100 nM for the first, 20 to 100 nM for the second.

`CNc1cc2ncc(-c3cc(NC(=O)c4cc(C(O)CC(F)(F)F)ccn4)cnc3C)cc2cn1` (stereo not drawn) [compound 242] and `CNc1cc2ncc(-c3cc(NC(=O)c4cc(C(F)F)ccn4)cnc3C)cc2cn1` [compound 22] fall in the same range of IC50: 20 to 100 nM for the first, 20 to 100 nM for the second.

First: CNc1cc2ncc(-c3cc(NC(=N)c4cc(C(F)(F)F)ccn4)cnc3C)cc2cn1 [compound 64]
Second: CNc1cc2ncc(-c3cc(NC(=O)c4cc(C(O)(O)C(F)(F)F)ccn4)cnc3C)cc2cn1 [compound 206]
The IC50 of the first is higher: > 500 nM for the first, 20 to 100 nM for the second. The second is the more potent here.

Compared with `CNc1cc2ncc(-c3cc(NC(=O)c4cccc(C5(C#N)CC5)c4)cnc3C)cc2cn1` [compound 191], `CNc1cc2ncc(-c3cc(NC(=O)c4cccc(N(C)C)c4)cnc3C)cc2cn1` [compound 19] is lower in IC50: 20 to 100 nM for the first, < 20 nM for the second. The second is the more potent here.

First: CNc1cc2ncc(-c3cc(NC(=O)c4cc(C(F)(F)F)ccn4)c(F)cc3C)cc2cn1 [compound 224]
Second: CNc1cc2ncc(-c3cc(NC(=O)c4cc(C(C)(C)C#N)ccn4)c(F)cc3F)cc2cn1 [compound 43]
The IC50 of the first is higher: 100 to 500 nM for the first, 20 to 100 nM for the second. The second is the more potent here.

`CNc1cc2ncc(-c3cc(NC(=O)c4ccnc(C5CC(F)(F)C5)c4)ccc3C)cc2cn1` [compound 17] and `CNc1cc2ncc(-c3cc(NC(=O)c4cccc(N(C)C)c4)ccc3C)cc2cn1` [compound 4] cannot be ordered by IC50: < 20 nM for the first, < 20 nM for the second.

First: CNc1cc2ncc(-c3cc(NC(=O)c4cnc5n4CC(C(F)F)CC5)ccc3C)cc2cn1 (stereo not drawn) [compound 238]
Second: CNc1cc2ncc(-c3cc(NC(=O)c4cnc5n4CC(C(F)F)CC5)cnc3C)cc2cn1 (stereo not drawn) [compound 251]
The IC50 of the first is lower: 20 to 100 nM for the first, 100 to 500 nM for the second.

First: CCC(C)c1ccnc(C(=O)Nc2cnc(C)c(-c3cnc4cc(NC)ncc4c3)c2)c1 (stereo not drawn) [compound 227]
Second: CNc1cc2ncc(-c3cc(NC(=O)c4ccnc(C(C)C)c4)cnc3C)cc2cn1 [compound 57]
The IC50 of the first is higher: 20 to 100 nM for the first, < 20 nM for the second. The second is the more potent here.

`CNc1cc2ncc(-c3cc(NC(=O)c4cc(C(C)(C)C#N)ccn4)cnc3C)cc2cn1` [compound 30] and `CNc1cc2ncc(-c3cc(NC(=O)c4cc(C(C)(C)C#N)ccn4)cc(F)c3C)cc2cn1` [compound 38] fall in the same range of IC50: 20 to 100 nM for the first, 20 to 100 nM for the second.

`CNc1cc2ncc(-c3cc(C(=O)Nc4cc(C(C)(C)C#N)ccn4)ccc3C)cc2cn1` [compound 53] and `CNc1cc2ncc(-c3cc(C(=O)Nc4cc(C(C)(C)C#N)ccn4)cnc3C)cc2cn1` [compound 59] fall in the same range of IC50: 20 to 100 nM for the first, 20 to 100 nM for the second.

Compared with `CNc1cc2ncc(-c3cc(NC(=O)c4ccc(OC(F)F)cn4)cnc3C)cc2cn1` [compound 72], `CNc1cc2ncc(-c3cc(NC(=O)c4cc(C(F)F)c(F)cn4)cnc3C)cc2cn1` [compound 66] is lower in IC50: > 500 nM for the first, 20 to 100 nM for the second. The second is the more potent here.

First: CNc1ncc2cc(-c3cc(NC(=O)c4ccnc(C5(F)CC5)c4)ccc3C)cnc2c1C#N [compound 271]
Second: CNc1ncc2cc(-c3cc(NC(=O)c4ccnc(C5(F)CC5)c4)ccc3C)cnc2c1Cl [compound 269]
The IC50 of the first is lower: 20 to 100 nM for the first, 100 to 500 nM for the second.

`CNc1cc2ncc(-c3cc(NC(=O)c4cc(C(C)(C)C#N)ccn4)ccc3Cl)cc2cn1` [compound 41] and `CCNc1cc2ncc(-c3cc(NC(=O)c4cc(C(C)(C)C#N)ccn4)ccc3C)cc2cn1` [compound 173] fall in the same range of IC50: 20 to 100 nM for the first, 20 to 100 nM for the second.

Compared with `CNc1cc2ncc(-c3cc(NC(=O)c4nccc5c4OCCC5O)cnc3C)cc2cn1` (stereo not drawn) [compound 211], `CNc1cc2ncc(-c3cc(NC(=O)c4nccc(C(C)C)c4Cl)cnc3C)cc2cn1` [compound 256] is lower in IC50: > 500 nM for the first, 20 to 100 nM for the second.

First: CNc1cc2ncc(-c3c(C)ncc(NC(=O)c4cc(C(C)(C)C#N)ccn4)c3Cl)cc2cn1 [compound 197]
Second: CNc1cc2ncc(-c3cc(F)cc(NC(=O)c4cc(C(C)(C)C#N)ccn4)c3)cc2cn1 [compound 47]
The IC50 of the first is higher: > 500 nM for the first, 100 to 500 nM for the second.

`Cc1ccc(NC(=O)c2cc(C(C)(C)C#N)ccn2)cc1-c1cnc2cc(N)ncc2c1` [compound 174] and `Cc1ccc(NC(=O)c2cc(C(F)F)ccn2)cc1-c1cnc2cc(NCCC#N)ncc2c1` [compound 78] fall in the same range of IC50: 20 to 100 nM for the first, 20 to 100 nM for the second.

Compared with `CNc1cc2ncc(-c3cc(NC(=O)c4noc5c4C[C@@H](C)CC5)ccc3C)cc2cn1` [compound 236], `CNc1cc2ncc(-c3cc(NC(=O)c4noc5c4CCCC5)ccc3C)cc2cn1` [compound 228] is higher in IC50: 20 to 100 nM for the first, 100 to 500 nM for the second.

`CNc1cc2ncc(-c3cc(NC(=O)[C@H](C)n4cnc(C(F)(F)F)n4)ccc3C)cc2cn1` [compound 68] and `CNc1cc2ncc(-c3cc(NC(=O)c4c[nH]c5c4CC(C)CC5)ccc3C)cc2cn1` (stereo not drawn) [compound 266] fall in the same range of IC50: 20 to 100 nM for the first, 20 to 100 nM for the second.

First: CNc1cc2ncc(-c3cc(NC(=O)c4cnc5n4CC(C(F)(F)F)CC5)cnc3C)cc2cn1 (stereo not drawn) [compound 243]
Second: CNc1cc2ncc(-c3cc(NC(=O)C[C@H]4C[C@H](C(F)(F)F)CCO4)cnc3C)cc2cn1 [compound 36]
The IC50 of the first is lower: 20 to 100 nM for the first, 100 to 500 nM for the second.

Compared with `CNc1cc2ncc(-c3cc(NC(=O)c4cccc(C(C)(C)C#N)c4)c(F)cc3C)cc2cn1` [compound 223], `CNc1cc2ncc(-c3cc(NC(=O)c4ccnc(C5(F)CC5)c4)cnc3C)cc2cn1` [compound 33] is lower in IC50: 20 to 100 nM for the first, < 20 nM for the second.

`CNc1cc2ncc(-c3cc(NC(=O)c4csc5c4CCCC5)cnc3C)cc2cn1` [compound 234] and `CNc1cc2ncc(-c3cc(NC(=O)c4nn(C)c5c4CCCC5)cnc3C)cc2cn1` [compound 233] fall in the same range of IC50: 20 to 100 nM for the first, 20 to 100 nM for the second.

`CNc1cc2ncc(-c3cc(NC(=O)c4cccc5c4CCC5=O)cnc3C)cc2cn1` [compound 212] and `CNc1cc2ncc(-c3cc(NC(=O)c4cccc5c4CCC[C@H]5O)cnc3C)cc2cn1` [compound 207] cannot be ordered by IC50: > 500 nM for the first, > 500 nM for the second.

`CNc1ncc2cc(-c3cc(NC(=O)c4ccnc(C(C)(C)C#N)c4)cnc3C)cnc2c1C#N` [compound 192] and `CNc1cc2ncc(-c3cc(NC(=O)c4noc5c4CC(C(C)(C)C)CC5)cnc3C)cc2cn1` (stereo not drawn) [compound 241] fall in the same range of IC50: 100 to 500 nM for the first, 100 to 500 nM for the second.

First: CNc1cc2ncc(-c3cc(NC(=O)c4noc5c4COCC5)cnc3C)cc2cn1 [compound 246]
Second: CNc1cc2ncc(-c3cc(NC(=O)c4n[nH]c5c4C[C@@H]4C[C@H]54)cnc3C)cc2cn1 [compound 252]
The IC50 of the first is higher: > 500 nM for the first, 20 to 100 nM for the second. The second is the more potent here.

`CNc1cc2ncc(-c3cc(NC(=O)c4c[nH]c5ccccc45)cnc3C)cc2cn1` [compound 194] showed an IC50 of 20 to 100 nM.

Source: patent US20260355169A1, “METHODS OF TREATING CANCERS USING ISOQUINOLINE OR 6-AZA-QUINOLINE DERIVATIVES” (Black Diamond Therapeutics, Inc., priority 2022, published 2026)
